In patent publication US12582122B2, “Herbicidal compositions comprising clethodim” (BASF SE, priority 2024, dated 2026):

Test system: Digitaria insularis (DIGIN)
Assay: Post-emergence application in field trials, herbicidal activity (damage 0-100% vs untreated control)
Format: in vivo
Settings: solo, post-emergence field trial, 21 DAT, 0.5% MSO; for % herbicidal activity A-1: 50 g ai/ha; for % herbicidal activity B: 240 g ai/ha
Procedure: In the examples below, using the method of S. R. Colby (1967) “Calculating synergistic and antagonistic responses of herbicide combinations”, Weeds 15, p. 22ff., the value E, which is expected if the activity of the individual active compounds is only additive, was calculated:
[formula] • where • X=percent activity using active herbicide A at an application rate a; • Y=percent activity using active herbicide B (e.g. clethodim) at an application rate b; • E=expected activity (in %) by A+B at application rates a+b.
If the value found experimentally is higher than the value E calculated according to Colby, a synergistic effect is present.
On field test sites, natural weed infestation or seeded weeds were treated post-emergence of the weeds.
In the field trials, the weeds were treated as indicated below.
In the following experiments, the herbicidal activity for the individual herbicidal compositions (solo and mixture applications) was assessed at the indicated days after treatment (DAT). The assessments for the damage on undesired weeds caused by the composition was carried out using a scale from 0 to 100%, compared to the untreated control plants. Here, 0 means no damage and 100 means complete destruction of the plants.
Herbicide A-1 and clethodim were, together with addition of 0.5% MSO (methylated sed oil) as adjuvant, formulated in water as distribution medium (water volume 200 l/ha) and sprayed with commercial flat fan nozzles.

Structure (SMILES) | % herbicidal activity A-1 (DIGIN height 5-15 cm) [%] | % herbicidal activity A-1 (DIGIN height 60-80 cm) [%] | % herbicidal activity B (DIGIN height 5-15 cm) [%] | % herbicidal activity B (DIGIN height 60-80 cm) [%]
CCOC(=O)COc1ccccc1Oc1nc(-n2c(=O)cc(C(F)(F)F)n(C)c2=O)c(F)cc1Cl [A-1, ethyl 2-[2-[[3-chloro-5-fluoro-6-[3-methyl-2,6-dioxo-4-(trifluoromethyl)pyrimidin-1-yl]-2-pyridyl]oxy]phenoxy]acetate] | 57 | 62 |  | 
CCSC(C)CC1CC(=O)C(/C(CC)=N/OC/C=C/Cl)=C(O)C1 (stereo not shown) [B, clethodim] |  |  | 68 | 57
